Laboratory results as given in paper PMC10789121, “Amine Basicity of Quinoline ATP Synthase Inhibitors Drives Antibacterial Activity against Pseudomonas aeruginosa” (ACS Medicinal Chemistry Letters, 2023).
pIC50: −log10 of the molar value. Several values for one entry are separate records, joined by “and”; a condition that tells them apart may be missing. Identical values can stand only once.

target: T1, PA ATP synthase (Pseudomonas aeruginosa, UniProt Q9HT15); assay: Inhibition of NADH-driven PA ATP synthesis activity in DK8/pASH20 inverted membrane vesicles (end-point luciferin/luciferase assay); format: biochemical; conditions: PA ATP synthase IC50 (absolute), NADH-driven ATP synthesis, EC DK8/pASH20 inverted membrane vesicles
T1 construct: a whole operon plasmid that expresses; made in house; host or cells: Escherichia coli DK8 (K-12 strain lacking the unc operon) transformed with pASH20; used as inverted membrane vesicles, not purified

SMILES	pIC50
c1ccc(CSc2nc3ccccc3cc2CNCCC2CCN(C3CCCC3)CC2)cc1 [Compound 16]	5.66
CSc1nc2ccccc2cc1CNCCc1cccn1C [Compound 17]	4.79
Cn1cccc1CCNCc1cc2ccccc2nc1SCc1ccccc1 [Compound 18]	4.89 and 4.99
CSc1nc2ccccc2cc1CNCCc1nc(C)cc(C)n1 [Compound 19]	3.70
Cc1cc(C)nc(CCNCc2cc3ccccc3nc2SCc2ccccc2)n1 [Compound 20]	5.14

tested on: PA electron transport chain; assay: Electron transport activity (ACMA fluorescence quenching) in PA 9027 inverted membrane vesicles; format: biochemical, Pseudomonas aeruginosa; conditions: 32 µg/mL
Excerpt: The assay for PA ATP synthase activity in EC DK8/pASH20 membrane vesicles requires a functional EC ETC, so potent inhibition of the EC ETC by any compound would interfere with the determination of its IC50 for PA ATP synthase. […] Furthermore, potent inhibition of PA ETC could be an alternative mechanism of action for the antibacterial activity of the current series.
(§1) Determination of electron transport activity. As previously described,11 inverted membrane vesicles from PA 9027 or E. coli DK8 pASH20 were added to HMK buffer containing 0.3 µg/mL 9-amino-6-chloro-2-methoxyacridine (ACMA) and 0-64 µg/mL test compound in DMSO. After measurement of baseline ACMA fluorescence for 60 s, redox-driven H+ pumping was initiated by addition of NADH to 0.8 mM, and fluorescence quenching was monitored for 120 s before addition of nigericin to 0.5 µg/mL. Relative activity is reported as the minimum fluorescence value normalized to the maximum fluorescence value following addition of nigericin.

SMILES	% PA ETC Inhibition at 32 µg/mL [%]
CSc1nc2ccccc2cc1CNCCc1cccn1C [Compound 17]	65
Cn1cccc1CCNCc1cc2ccccc2nc1SCc1ccccc1 [Compound 18]	62
Cc1cc(C)nc(CCNCc2cc3ccccc3nc2SCc2ccccc2)n1 [Compound 20]	67

same assay, conditions: PA 9027 inverted membrane vesicles

SMILES	PA ETC IC50
c1ccc(CSc2nc3ccccc3cc2CNCCC2CCN(C3CCCC3)CC2)cc1 [Compound 16]	14 [14] μg/mL

same assay, conditions: concentration not given

SMILES	% PA ETC Inhibition [%]
CSc1nc2ccccc2cc1CNCCc1nc(C)cc(C)n1 [Compound 19]	20

tested on: EC electron transport chain; assay: Electron transport activity (ACMA fluorescence quenching) in E. coli DK8 pASH20 inverted membrane vesicles; format: biochemical, Escherichia coli; conditions: 4 µg/mL
Procedure: as §1

SMILES	% EC ETC Inhibition at 4 µg/mL [%]
c1ccc(CSc2nc3ccccc3cc2CNCCC2CCN(C3CCCC3)CC2)cc1 [Compound 16]	9
CSc1nc2ccccc2cc1CNCCc1cccn1C [Compound 17]	0
Cn1cccc1CCNCc1cc2ccccc2nc1SCc1ccccc1 [Compound 18]	5
CSc1nc2ccccc2cc1CNCCc1nc(C)cc(C)n1 [Compound 19]	1.3
Cc1cc(C)nc(CCNCc2cc3ccccc3nc2SCc2ccccc2)n1 [Compound 20]	17

tested on: PA 9027; assay: Antimicrobial susceptibility, broth microdilution MIC; format: cell-based; conditions: Pseudomonas aeruginosa, read-out: MIC PA 9027
Procedure: (§2) Pseudomonas aeruginosa (ATCC 9027), Drug-Resistant Pseudomonas aeruginosa from ATCC Panel MP-23 (BAA-2108, BAA-2109, BAA-2110), and Pseudomonas aeruginosa efflux knockout GKCW120 (PD6)14 provided by Zgurskaya and co-workers at the University of Oklahoma.
(§3) Antimicrobial Susceptibility Assay Procedure. Susceptibility testing was performed in biological triplicate, using the broth microdilution method as outlined by the Clinical and Laboratory Standards Institute. Briefly, minimum inhibitory concentrations (MIC) determinations were carried out in 96-well microtiter plates with 2-fold serial dilutions of the compounds from 0 […]
(§4) Briefly, to each well 1 µL of compound in DMSO, 89 µL of TSB, and 10 µL of bacterial inoculum, grown from frozen stock in 10 mL of TSB […]
(§5) for 4-6 hours, were added. […]
(§6) on a Biotek Synergy HTX Multi-mode plate reader. Data was processed by background subtracting the media absorbance and then normalizing the data to full bacterial growth with only vehicle.
(§7) MIC is defined as the lowest concentration of antibiotic or antibiotic/adjuvant combination that achieves ≥ 85% growth inhibition, which corresponds to no visible growth. […]

SMILES	MIC [µg/mL]
c1ccc(CSc2nc3ccccc3cc2CNCCC2CCN(C3CCCC3)CC2)cc1 [Compound 16]	> 128

tested on: PΔ6 (efflux knockout strain of PA); assay: as above; format: cell-based; conditions: Pseudomonas aeruginosa, read-out: MIC PΔ6
Procedure: as §2, §3, §4, §5, §6, §7

SMILES	MIC [µg/mL]
c1ccc(CSc2nc3ccccc3cc2CNCCC2CCN(C3CCCC3)CC2)cc1 [Compound 16]	8

tested on: BAA 2108 (MDRPA clinical isolate); assay: as above; format: cell-based, Pseudomonas aeruginosa; conditions: Pseudomonas aeruginosa, BAA2108, read-out: MIC BAA 2108
Procedure: as §2, §3, §4, §5, §6, §7

SMILES	MIC [µg/mL]
c1ccc(CSc2nc3ccccc3cc2CNCCC2CCN(C3CCCC3)CC2)cc1 [Compound 16]	32

tested on: BAA 2109 (MDRPA clinical isolate); assay: as above; format: cell-based, Pseudomonas aeruginosa; conditions: Pseudomonas aeruginosa, BAA2109, read-out: MIC BAA 2109
Procedure: as §2, §3, §4, §5, §6, §7

SMILES	MIC [µg/mL]
c1ccc(CSc2nc3ccccc3cc2CNCCC2CCN(C3CCCC3)CC2)cc1 [Compound 16]	64

tested on: BAA 2110 (MDRPA clinical isolate); assay: as above; format: cell-based, Pseudomonas aeruginosa; conditions: >85% reduction in growth at OD 590 nm; n = 3
Procedure: as §2, §3, §4, §5, §6, §7

SMILES	MIC BAA 2110
c1ccc(CSc2nc3ccccc3cc2CNCCC2CCN(C3CCCC3)CC2)cc1 [Compound 16]	inactive

same assay, conditions: Pseudomonas aeruginosa, BAA2110, read-out: MIC BAA 2110

SMILES	MIC [µg/mL]
c1ccc(CSc2nc3ccccc3cc2CNCCC2CCN(C3CCCC3)CC2)cc1 [Compound 16]	> 128

tested on: not given; assay: not given; set-up: method as in earlier work; conditions: value of the C2 functional group; cited from earlier work

SMILES	approximate pKa (NH+) of C2 side chain conjugate acid
c1ccc(CSc2nc3ccccc3cc2CNCCC2CCN(C3CCCC3)CC2)cc1 [Compound 16]	> 6
CSc1nc2ccccc2cc1CNCCc1cccn1C [Compound 17]	∼0.5
CSc1nc2ccccc2cc1CNCCc1nc(C)cc(C)n1 [Compound 19]	∼1
